# Source: ChEMBL document CHEMBL1681648, “Synthesis and in vitro antibacterial activity of oxazolidine LBM-415 analogs as peptide deformylase inhibitors” (2011)
# Key:
# Type in all cases: functional
# Staphylococcus aureus = test: Antimicrobial activity against Staphylococcus aureus 26003 after 24 hrs by agar dilution method; settings: Staphylococcus aureus, 26003, 24 h
# Streptococcus pneumoniae = test: Antimicrobial activity against Streptococcus pneumoniae 31002 after 24 hrs by agar dilution method; settings: Streptococcus pneumoniae, 31002, 24 h
# [1] = Antimicrobial activity against Streptomyces albus 260101 after 24 hrs by agar dilution method; settings: Streptomyces albus, 260101, 24 h
# Shigella boydii = test: Antimicrobial activity against Shigella boydii 51313 after 24 hrs by agar dilution method; settings: Shigella boydii, 51313, 24 h
# Shigella flexneri = test: Antimicrobial activity against Shigella flexneri 92475 after 24 hrs by agar dilution method; settings: Shigella flexneri, 92475, 24 h
MIC (Staphylococcus aureus) [µg/mL],MIC (Streptococcus pneumoniae) [µg/mL],MIC [1] [µg/mL],MIC (Shigella boydii) [µg/mL],MIC (Shigella flexneri) [µg/mL],Structure (SMILES)
0.39,0.195,0.39,> 6.25,> 6.25,CCCC[C@H](CN(O)C=O)C(=O)N1COC[C@H]1C(=O)Nc1ccccc1
0.78,0.195,0.78,> 6.25,> 6.25,CCCC[C@H](CN(O)C=O)C(=O)N1COC[C@H]1C(=O)Nc1ccc(C)cc1
0.39,0.195,0.39,> 6.25,> 6.25,CCCC[C@H](CN(O)C=O)C(=O)N1COC[C@H]1C(=O)Nc1ccc(F)cc1
0.39,0.195,0.39,> 6.25,> 6.25,CCCC[C@H](CN(O)C=O)C(=O)N1COC[C@H]1C(=O)Nc1c(F)cccc1F
0.39,0.195,0.78,> 6.25,> 6.25,CCCC[C@H](CN(O)C=O)C(=O)N1COC[C@H]1C(=O)Nc1ccc(OC)cc1
0.78,0.098,0.78,> 6.25,> 6.25,CCCC[C@H](CN(O)C=O)C(=O)N1COC[C@H]1C(=O)Nc1ccc(N2CCOCC2)c(F)c1
0.39,0.098,0.39,6.25,6.25,CCCC[C@H](CN(O)C=O)C(=O)N1COC[C@H]1C(=O)Nc1ccc(N2CCOCC2)c(Cl)c1
1.56,0.39,0.78,6.25,> 6.25,CCCC[C@H](CN(O)C=O)C(=O)N1COC[C@H]1C(=O)Nc1ccc(N2CCOCC2)cc1
0.78,0.098,0.39,3.13,3.13,CCCC[C@H](CN(O)C=O)C(=O)N1COC[C@H]1C(=O)Nc1ccc(F)cn1
1.56,0.195,1.56,> 6.25,> 6.25,CCCC[C@H](CN(O)C=O)C(=O)N1COC[C@H]1C(=O)N[C@@H](C)c1ccccc1
0.78,0.78,1.56,> 6.25,> 6.25,CCCC[C@H](CN(O)C=O)C(=O)N1COC[C@H]1C(=O)NCc1ccccc1
1.56,0.098,0.78,> 6.25,> 6.25,CCCC[C@H](CN(O)C=O)C(=O)N1CO[C@H](C)[C@H]1C(=O)Nc1ccc(C)cc1
1.56,0.195,0.78,3.13,> 6.25,CCCC[C@H](CN(O)C=O)C(=O)N1CO[C@H](C)[C@H]1C(=O)Nc1ccc(F)cc1
0.78,0.195,1.56,> 6.25,> 6.25,CCCC[C@H](CN(O)C=O)C(=O)N1CO[C@H](C)[C@H]1C(=O)Nc1ccc(N2CCOCC2)c(F)c1
0.78,0.098,0.39,> 6.25,> 6.25,CCCC[C@H](CN(O)C=O)C(=O)N1CO[C@H](C)[C@H]1C(=O)Nc1ccc(N2CCOCC2)c(Cl)c1
1.56,0.39,0.39,3.13,> 6.25,CCCC[C@H](CN(O)C=O)C(=O)N1CO[C@H](C)[C@H]1C(=O)Nc1ccc(F)cn1
0.78,0.195,0.78,3.13,> 6.25,CCCC[C@H](CN(O)C=O)C(=O)N1COC[C@H]1C(=O)Nc1ccc(F)c[n+]1[O-]
1.56,0.195,0.78,> 6.25,> 6.25,CCCC[C@H](CN(O)C=O)C(=O)N1CO[C@H](C)[C@H]1C(=O)Nc1ccc(F)c[n+]1[O-]
0.39,0.195,0.39,6.25,> 6.25,CCCC[C@H](CN(O)C=O)C(=O)N1CCC[C@H]1C(=O)Nc1ccc(F)c[n+]1[O-]
